# Experimental data published in patent US7465469B2, “Microbiocidal formulation comprising essentials oils or their derivatives” (State of Israel, Ministry of Agriculture & Rural …, priority 2001, dated 2008).
# Read-outs that look alike come from different tables or passages of the source.
# What was measured:
# P. digitatum [1] = assay: Mode of action test (fungicidal or fungistatic) by transfer of the mycelial disc to plain PDA; format: cell-based, Penicillium digitatum; conditions: growth monitored 5 days after transfer to plain PDA
# Excerpt: A further test was made (in vitro) to investigate whether the mode of action was fungicidal or fungistatic; the mycelial disc of inoculum from the assay plate was transferred to a plate containing just PDA. Plates were then monitored for growth over the next 5 days. If growth resumed, the compound was classified fungistatic, and if growth was not resumed it was classified as fungicidal.
# P. digitatum [2] = assay: Minimum inhibitory concentration in PDA Petri dishes (mycelial disc); format: cell-based, Penicillium digitatum; conditions: 24° C., hyphal growth after 7 days
# Experimental: The minimum inhibitory concentration (MIC) of over 50 compounds that were found in the oil glands of citrus fruits was evaluated (in vitro) by establishing the lowest concentration of the compound where no growth of the pathogen occurred (in vitro) in Petri dishes. Table 5 gives the MIC of the more promising compounds (as compared to imazalil). The requisite amount of each of the compounds to be tested, dissolved in 0.5 ml acetone, was added to a sterile Petri dish (90 mm) containing 15 ml of molten potato dextrose agar (PDA) (50° C.) to give a final concentration of 1 mg ml^−1. The dish was gently agitated to ensure an even distribution of the test compound and the agar was then left to set. The dishes were inoculated using a mycelial disc (8 mm) cut from an agar plate culture of P. digitatum which had not yet begun sporulation. The mycelial discs were placed in the center of each test dish and then put at 24° C. Fungal inhibition was monitored by measuring the diameter of hyphal growth after 7 days.
# lemon fruit = assay: Peel blemish index of lemon fruit after 1-minute dip in citral with antioxidant BHA; format: in vivo; conditions: BHA by itself
# Excerpt: The antioxidant reduces the oxidation rate of the essential oils leading to their decomposition. It further reduces the inherent phytotoxicity of the essential oil. The antioxidant may be chosen from the group comprising of compounds such as but not limited to: butylated hydroxyanisole (BHA), ascorbic acid, isoascorbic acid, α-tocopherol, butylated hydroxytoluene (BHT), β-carotene or their mixtures. Preferred concentrations of the antioxidant in the formulation of the invention are in the range of from about 0.05% to about 0.8% (w/v).
# The peel blemish index is determined by
# (§1) The blemish score is 0 =no blemishes; 1=light blemishes; 2=moderate blemishes; and 3=severe blemishes.
# Penicillium = assay: Decay of lemons inoculated as in Example 2 and treated with citral emulsions; format: in vivo, Penicillium digitatum on lemons
# Experimental: Unblemished grapefruit were harvested from the orchard and on the same day sorted again in the laboratory to eliminate injured fruit. The grapefruit were washed with tap water and air-dried. Each fruit was then inoculated by piercing its flavedo tissue 1.5 mm deep with a tool incorporating three needles at three different sites. Prior to each piercing, the tool was immersed in a spore suspension of Penicillium digitatum (10^6 spores/ml). The inoculated grapefruit were kept at 17° C. and 85% relative humidity for 24 hours after which the grapefruit were divided into six groups and grapefruit from each group were treated by dipping for two minutes in: (a) water; (b) 25% Ethanol (EtOH); (c) 0.2% Geraniol in 25% EtOH; (d) 0.1% Citral in 25% EtOH, (e) 0.2% Citral in 25% EtOH and (f) 0.5% Citral in 25% EtOH.
# Lemons were inoculated as shown in Example 2 and treated with and without 25% of ethanol to check whether the 5000 ppm of the emulsifier Tween 20 could stabilize the antifungal activity of citral. […] Probably the emulsifier enables the formation of a microcolloidal stable emulsion, which prevents the phytotxicity by allowing uniform dispersion of citral, which is phytotoxic by itself in these concentrations. Thus, Tween 20 combined with the antioxidant BHA could substitute for the ethanol in the formulation.
# Lemons inoculated with Penicillium as shown in Example 2 were dipped for 2 minutes in an aqueous solution comprising citral, emulsifier (Triton X100) and BHA at various concentrations. The concentration of Citral is 1.0%. The control solution was comprised of 0.5% Triton X100.
# Lemons inoculated with Penicillium as shown in Example 2 were treated with an aqueous solution comprising 0.5% Citral, 0.3% BHA, Tween 20 and imazalil and stored at 20° C. for a period of 21 days.
# Alternaria citri = assay: In vitro agar diffusion assay; format: cell-based; conditions: Five mg on paper disc; Total inhibition is the maximal inhibition, 62.3 cm^2
# Geotrichum Candidum = assay: In vitro agar diffusion assay; format: cell-based; conditions: Five mg on paper disc; Total inhibition is the maximal inhibition, 62.3 cm^2
# Penicillium italicum = assay: In vitro agar diffusion assay; format: cell-based; conditions: Five mg on paper disc; Total inhibition is the maximal inhibition, 62.3 cm^2
# [3] = test system: microbial population in meat cuts of beef; assay: Total count of microbial population in beef meat cuts after dip; conditions: 30 seconds dip in 0.2% Citral dissolved in 20% ethanol; 2 weeks at 1° C.
# Experimental: The meat cuts were then stored in 1° C. and 85% relative humidity and a total count of the microbial population in each meat cut was carried out 2 weeks after treatment.
# Penicillium digitatum [4] = assay: Decay of Penicillium-inoculated grapefruit after 2-minute dip; format: in vivo, Penicillium digitatum on grapefruit
# Excerpt: Unblemished grapefruit were harvested from the orchard and on the same day sorted again in the laboratory to eliminate injured fruit. The grapefruit were washed with tap water and air-dried. Each fruit was then inoculated by piercing its flavedo tissue 1.5 mm deep with a tool incorporating three needles at three different sites. Prior to each piercing, the tool was immersed in a spore suspension of Penicillium digitatum (10^6 spores/ml).
# Cladosporium herbarum = assay: Inhibition of Cladosporium herbarum growing on inoculated corn cob; format: in vivo; conditions: dissolved in 25% ethanol
# lemons = assay: Induction of phytoalexins (scoparone, scopoletin) in lemons; format: in vivo, lemon; conditions: injection into the albedo tissue of lemons
# Experimental: Treating uninoculated lemons by injecting 5 μl photo-oxidized limonene into the albedo tissue, just below the flavedo, elicited in these lemons the production of scoparone and scopoletin up to levels adequate to protect the fruit from the pathogen. […] Such injury of yellow fruit gave much lower response showing that the maturity of fruit affects this resistance response and older fruit is less protected (FIG. 2). […] Furthermore much higher levels of both scoparone (over 1000 μg/g fresh weight) and of scopoletin (over 200 μg/g fresh weight) were found after dipping inoculated fruit in the crude dichloromethane extract that prevented decay (FIG. 7). The phytoalexins level found was several fold of the amount required to control completely the pathogens. Thus apparently, the formed limonene hydroperoxides form reactive oxygen species, which elicit the immune system of the plant. Such reactive oxygen species effect the pathogen as well. These reactive oxygen species have a short life and decompose well before the fruit is distributed to the market.
# Erwinia carotovora = assay: Control of bacterial growth (other experiments, data not shown); format: cell-based
# P. digitatum [5] = assay: Control of fungal growth (other experiments, data not shown); format: cell-based, Penicillium digitatum
# [6] = test system: wild type Candida albicans; assay: Growth of Candida albicans cells in culture broth (OD 600 nm); format: cell-based
# Experimental: Cells of wild type Candida albicans (1×10^3) were grown on culture broth at 37° C. with different concentration of extracts 50-100 μl. OD was determined at 600 nm. The following treatments in 6 different tubes were given: […] TUBE 2. 2000 ppm Citral+25% Ethanol+2000 ppm Tween-20+300 ppm BHA. […] TUBE 6. 25% ethanol+2000 ppm Tween-20+500 ppm β-CD+300 ppm BHA.
# [7] = test system: non-inoculated Washington oranges; assay: Decay percentage of non-inoculated Washington oranges during storage; format: in vivo, Washington navel oranges
# Experimental: Non-inoculated Washington navel oranges were divided into […] groups which were treated as follows: (a) no treatment; (b) dipped in 50% Ethanol; (c) dipped in 0.2% Citral in 0.02% L-77 Emulsifier (aqueous emulsion); (d) dipped in 0.2% Citral in 50% Ethanol; and (e) dipped in a 0.2% aqueous Imazalil solution.
# Oranges were then stored for four months at 15° C. in 50-75% relative humidity and the percentage of rotten fruit in each group was measured at different time periods after storage.
# Penicillium digitatum [8] = assay: Decay of lemons inoculated with Penicillium 10^4 spores/ml and dipped; format: in vivo, Penicillium digitatum on lemons; conditions: limonene or peel extract not irradiated or exposed to sunlight
# Experimental: Lemon fruit flavedo (exocarp) was taken and extracted overnight in dichloromethane, then exposed to sunlight for about 18 hours until the color of the dichloromethane extract turned brown. The flavedo was blended and filtered through a layer of Whatman paper. The extracted solution was evaporated to remove the dichloromethane and the dense liquor was further separated by chromatography with a silica 60 column using dichloromethane as a carrier. Two fractions of dichloromethane, one green and the other colorless, were obtained after chromatography. The crude active extract was isolated by evaporation of the green dichloromethane fraction. […] Effect of the compounds on pathogen development on the fruit was checked daily during storage.
# The antifungal activity of the products prepared in the two different routes was checked in the same method. […] Decay was evaluated at specific intervals during a period of 26 days.
# Lemons inoculated with Penicillium (10^4 spores/ml) were dipped in an aqueous solution comprising citral, a detergent (Tween 20), other essential oil components as well as a dichloromethane crude extract of lemon flavedo exposed to sunlight. Decay was evaluated at specific intervals during a period of 20 days.
# Pure limonene was exposed to sunlight for three hours. […]
# fruit = assay: Phytotoxicity of citral solutions comprising emulsifiers (1-minute fruit dip); conditions: in vivo
# Excerpt: as §1
# [9] = Penicillium digitatum, 168 h, read-out: MIC
Compound,MIC (P. digitatum [2]; [9]) [µg/mL],Mode of action (P. digitatum [1]),GROWTH INHIBITION AREA OF THE PATHOGEN (Alternaria citri),GROWTH INHIBITION AREA OF THE PATHOGEN (Geotrichum Candidum),GROWTH INHIBITION AREA OF THE PATHOGEN (Penicillium italicum),also measured
C=C(C)C1CC=C(C)C(O)C1 (mixture of isomers) [Carveol],1000,Fungistatic,–,–,–,–
"COc1ccc(O)c(C(C)(C)C)c1 [BHA, butylated hydroxyanisole]",–,–,–,–,–,"Peel blemish (lemon fruit): did not cause any blemish; activity of citral in preventing the development of the pathogen (Penicillium; 0.1% BHA with 1.0% citral and Triton X100, 2 minutes dip): enhancing the activity of citral"
O=CC=Cc1ccccc1 [Cinnamaldehyde],400,Fungicidal,Total inhibition,24.2 cm^2,Total inhibition,–
"CC(C)=CCCC(C)=CC=O [Citral, 3,7-dimethyl-2,6-octadienal]",400,Fungicidal,Total inhibition,10.6 cm^2,Total inhibition,"total counts of microbial population, relative to the non-treated meat cuts [3]: less than 10%; fruit showing decay (Penicillium digitatum [4]; 0.2% Citral dissolved in 25% EtOH, 28 days after inoculation): 20%; decay of fruit (Penicillium digitatum [4]; 0.2% Citral dissolved in 25% EtOH, until 18 days after inoculation): completely inhibited decay; decay of fruit (Penicillium digitatum [4]; 0.5% Citral in 25% EtOH, ascribed to phytotoxicity): enhanced decay; inhibition of the pathogen (Cladosporium herbarum): marked inhibition; elicitation of phytoalexin (scoparone, scopoletin) production (lemons): did not elicit the same protective response; decay control (Penicillium; 0.5% citral added to 1 ppm imazalil, 0.3% BHA, Tween 20, 20° C., 21 days): did not control decay adequately; decay control (Penicillium; 0.5% citral added to 10 ppm imazalil, 0.3% BHA, Tween 20, 20° C., 21 days): prevented decay completely; controlling growth of the bacteria (Erwinia carotovora): effective in controlling growth; controlling growth of the fungi (P. digitatum [5]): effective in controlling growth; cell growth ([6]; 2000 ppm Citral in 25% ethanol and 2000 ppm Tween 20): completely inhibited cell growth; cell growth ([6]; 2000 ppm Citral, 25% ethanol, 2000 ppm Tween 20 together with β-CD 500 ppm, 300 ppm BHA): completely inhibited cell growth"
CC(C)=CCCC(C)CC=O (stereo not shown) [Citronellal],600,Fungistatic,–,–,–,–
CCCCCCCC=O [Octanal],–,–,5.3 cm^2,3.6 cm^2,2.6 cm^2,–
C=C(C)[C@@H]1CC=C(CO)CC1 [Perillalcohol],–,Fungicidal,–,–,–,MIC (P. digitatum [2]): 0.4 mg ml^−1 agar
C=C(C)C1CC=C(C=O)CC1 (stereo not shown) [Perillaldehyde],400,Fungicidal,Total inhibition,Total inhibition,Total inhibition,–
"C=C(C)C1CC=C(C)CC1 (stereo not shown) [limonene, 1-methyl-4-(1-methylethenyl)cyclohexene]",–,–,–,–,–,"inhibition of decay (Penicillium digitatum [8]): not adequately active; elicitation of phytoalexin (scoparone, scopoletin) production (lemons): eliciting the endogenous resistance mechanisms"
polyoxyethylene sorbitan monooleate [Tween 80],–,–,–,–,–,Phytotoxicity (peel blemish index as in Table 1) (fruit): 0

# Now from value to compound, other results behind:
MIC (P. digitatum [2]; [9]) [µg/mL],Compound,Mode of action (P. digitatum [1]),GROWTH INHIBITION AREA OF THE PATHOGEN (Alternaria citri),GROWTH INHIBITION AREA OF THE PATHOGEN (Geotrichum Candidum),GROWTH INHIBITION AREA OF THE PATHOGEN (Penicillium italicum),also measured
50,CCCCCCCCCCO [Decanol],Fungistatic,Total inhibition,0.95 cm^2,Total inhibition,–
< 25,"C=CCOC(Cn1ccnc1)c1ccc(Cl)cc1Cl (stereo not shown) [Imazalil, reference compound]",Fungicidal,42.8 cm^2,8.3 cm^2,Total inhibition,"% of rotten fruit ([7]; 0.5 months of storage at 15° C.): 0%; % of rotten fruit ([7]; 1 month of storage at 15° C.): 2%; % of rotten fruit ([7]; 2 months of storage at 15° C.): 4%; % of rotten fruit ([7]; 3 months of storage at 15° C.): 5%; % of rotten fruit ([7]; 4 months of storage at 15° C.): 8%; decay control (Penicillium; imazalil 1 and 10 ppm, stored at 20° C. for 21 days): insufficient to control completely decay"
200,CCCCCCCCCO [Nonanol],Fungistatic,–,–,–,–
100,CCCCCCCCO [Octanol],Fungicidal,Total inhibition,Total inhibition,Total inhibition,–
